Tests used:
[1] = system: fat cells; test: cellular toxicity in fat cells; format: cell-based; conditions: FIG. 6A, drug 30 ug/mL
[2] = system: mature fat cells; test: glucose consumption rate of fat cells in culture medium; format: cell-based; conditions: 24 hours, control group about 20%
Excerpt: Please refer to FIGS. 6A-6C. FIGS. 6A-6C show the results of the activity of the glucose consumption rate of fat cells in the culture medium. As shown in FIGS. 6A-6C, various compounds containing halogens, such as chlorine, bromine and iodine, can increase the glucose consumption rate of fat cells. Many of the deuterium-containing compounds are new ones in this example. […] Symbol ‘Con’ denotes the Control Group, Symbol ‘5’ denotes a 2Br2H compound, Symbol ‘6’ denotes a 2I2H compound, Symbol ‘Met’ denotes a metformin, Symbol ‘AI’ denotes an AMPK inhibitor, Symbol ‘L’ denotes a low-dose usage of 15 ug/mL, and Symbol ‘H’ denotes a high-dose usage of 30 ug/mL
The activity of the glucose consumption rate of fat cells is taken from the following: A testing drug, 2,3-dideutero-1-(2-iodophenyl)-3-(4-methoxyphenyl)propan-1-one with the concentration 30 ug/mL, was cultured with mature fat cells for 24 hours. It was then tested to determine the change of the glucose concentration in the culture medium.
24 hours after the replacement of a culture media, the glucose consumption rate of the control group was about 20%. After insulin was added, the glucose consumption rate of the cells in the control group upgrades to 30%. With the commercial drug, Pioglitazone of 30 ug/mL, the glucose consumption rate of the cells in the corresponding group increased to 40%.

Compound	cellular toxicity [1]	also measured
[2H]C(C(=O)c1ccccc1I)C([2H])c1ccc(OC)cc1 (centres unmarked) [2I1D, 2,3-dideutero-1-(2-iodophenyl)-3-(4-methoxyphenyl)propan-1-one]	no visible cellular toxicity	–
COc1ccc(/C=C/C(=O)c2ccccc2I)cc1 [2I2H, (E)-1-(2-iodophenyl)-3-(4-methoxyphenyl)prop-2-en-1-one]	no visible cellular toxicity	–
COc1ccc(C#CC(=O)c2ccccc2I)cc1 [2I3, 1-(2-iodophenyl)-3-(4-methoxyphenyl)prop-2-yn-1-one]	significant cellular toxicity	–
CCc1ccc(CCOc2ccc(CC3SC(=O)NC3=O)cc2)nc1 (centres unmarked) [Pioglitazone, reference compound]	–	glucose consumption rate of the cells ([2]; mature fat cells, drug 30 ug/mL): 40%
insulin: insulin added to fat cells as a positive control	–	glucose consumption rate of the cells ([2]; fat cells, after insulin was added): 30%

From patent publication US20160214918A1, “COMPOSITION FOR TREATING METABOLIC SYNDROME AND A PREPARATION METHOD THEREOF” (Kaohsiung Medical University, priority 2015, published 2016)
